Results from patent US20260042755A1, “GPR6 INVERSE AGONISTS” (MapLight Therapeutics, Inc., priority 2022, published 2026).

Key:
[1] = biological target: T1, GPR3 (Homo sapiens, UniProt P46089); test: GPR3 antagonist functional cAMP assay (LANCE Ultra cAMP TR-FRET, CHO cells stably expressing GPR3); type: cell-based
T1 construct: expressed in transfected cells; host or cells: CHO cells
Procedure: (§1) Example 56. GPR6 and GPR3 Antagonist Functional cAMP Assay
(§2) CHO cells stably expressing GPR6 or GPR3 receptors were dissociated from cell culture flasks and incubated for 2 h at 37° C. in a 10 cm dish in a humidified incubator. Cells were dissociated, counted to have 1e6 cells/mL (4.5e6 cells needed/384-well plate), washed once in starved media, than in D-PBS and finally suspended in assay buffer (Krebs-Ringer Bicarbonate Buffer with 1800 mg/L glucose, without calcium chloride and sodium bicarbonate (Sigma) in the presence of 0.1% BSA and 150 μM of Ro 20-1724 Phosphodiesterase inhibitor).
(§3) Cells in suspension from above were plated in 384-well white Optiplate (PerkinElmer) at 10,000 cells/well/10 μl, briefly centrifuged prior direct addition of compounds ([…]) in 10 mM DMSO using a Tecan D300e Digital Dispenser, final DMSO in each well was normalized to 0.1%. Cells were incubated in the presence of compounds for 45 min at 37° C. in a humidified incubator.
(§4) To measure cAMP levels, LANCE® Ultra cAMP assay (Perkin Elmer), a homogeneous time-resolved fluorescence resonance energy transfer (TR-FRET) immunoassay was used following manufacturer's recommendations. Plates were shaken for 1 h at room temperature before reading on a Tecan InfiniteF200Pro multi-mode plate reader using standard FRET settings (Excitation 340 nm, Emission at 615 nm). FRET values were reported as readings obtained at 665 nm. Data were normalized to DMSO (0.1%) and reference compounds (100%) and fit to a 4-parameter logistical fit to generate antagonist IC50s.

[2] = biological target: T2, GPR6 (Homo sapiens, UniProt P46095); test: GPR6 antagonist functional cAMP assay (LANCE Ultra cAMP TR-FRET, CHO cells stably expressing GPR6); type: cell-based
T2 construct: expressed in transfected cells; host or cells: CHO cells
T2 sequence (P46095 whole entry): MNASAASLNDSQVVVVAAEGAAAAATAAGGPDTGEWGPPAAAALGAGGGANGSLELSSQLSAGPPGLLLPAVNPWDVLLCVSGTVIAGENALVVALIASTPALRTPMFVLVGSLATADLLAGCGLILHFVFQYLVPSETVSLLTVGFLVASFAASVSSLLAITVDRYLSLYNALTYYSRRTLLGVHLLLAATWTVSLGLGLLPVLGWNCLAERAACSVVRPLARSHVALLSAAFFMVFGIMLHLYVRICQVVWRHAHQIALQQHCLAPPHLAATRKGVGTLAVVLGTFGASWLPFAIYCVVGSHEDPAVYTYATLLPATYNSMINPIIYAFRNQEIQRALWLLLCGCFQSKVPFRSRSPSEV
Procedure: as §1, §2, §3, §4

[3] = CHO cells stably expressing GPR3, cAMP assay (Example 24)
[4] = CHO cells stably expressing GPR6, cAMP assay (Example 24)
[5] = procedure as described in Example 24

T1 sequence (P46089 whole entry, species assumed): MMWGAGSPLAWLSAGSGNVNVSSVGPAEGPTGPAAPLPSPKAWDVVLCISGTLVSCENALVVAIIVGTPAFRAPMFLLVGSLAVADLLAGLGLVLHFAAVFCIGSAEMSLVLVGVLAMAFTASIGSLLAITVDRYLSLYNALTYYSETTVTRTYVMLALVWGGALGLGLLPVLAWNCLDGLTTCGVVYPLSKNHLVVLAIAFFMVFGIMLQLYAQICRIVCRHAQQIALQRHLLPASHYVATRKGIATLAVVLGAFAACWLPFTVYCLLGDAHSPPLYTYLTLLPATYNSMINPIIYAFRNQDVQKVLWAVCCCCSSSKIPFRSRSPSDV

Row | Molecule | IC50 [1, 3] | IC50 [2, 4] | also measured
1 | 1-(3-{6-acetyl-2-[4-(2,4- difluorophenoxy)piperidin- 1-yl]-5H,6H,7H,8H- pyrido[3,4-b]pyrazin-3- yl}-4H,5H,6H,7H- pyrazolo[1,5-a]pyrazin-5- yl)ethan-1-one [Compound 106] | 1000 to 30000 nM | 1000 to 30000 nM | –
2 | 1-[3-(1-methyl-4-pyrazolyl)-2-{4- [(o-nitrophenyl)methyl]-1- piperazinyl}-5,6,7,8-tetrahydro- 1,4,6-triaza-6-naphthyl]-1- ethanone [Compound 527] | – | – | IC50 ([1]; CHO cells stably expressing GPR3, cAMP assay): 1000 to 30000 nM; IC50 ([2]; CHO cells stably expressing GPR6, cAMP assay): 100 to 1000 nM
3 | CC(C)(O)C(O)c1ncc2nc(-c3cnn(CF)c3)c(N3CCN(Cc4ccc(F)cc4F)CC3)nc2c1F (racemic) [Compound 797, 1-(2-{4-[(2,4-difluorophenyl)methyl]-1-piperazinyl}-8-fluoro-3-[1-(fluoromethyl)-4-pyrazolyl]-1,4,6-triaza-7-naphthyl)-2-methyl-1,2-propanediol] | – | – | IC50 ([1]; procedure of Example 24): 1000 to 30000 nM; IC50 ([2]; procedure of Example 24): 100 to 1000 nM
4 | CC1CN(Cc2ccc(F)cc2F)CCN1c1nc2ccncc2nc1-c1cn[nH]c1 (single isomer, unassigned) [Compound 45, 4-[(2,4-difluorophenyl)methyl]-2-methyl-1-[3-(1H-pyrazol-4-yl)pyrido[3,4-b]pyrazin-2-yl]piperazine] | – | – | IC50 [1, 5]: 1000 to 30000 nM; IC50 [2, 5]: 1000 to 30000 nM
5 | CC1CN(c2nc3ccncc3nc2-c2cn[nH]c2)CCN1Cc1ccc(F)cc1F (single isomer, unassigned) [Compound 49, 2-(4-(2,4-difluorobenzyl)-3-methylpiperazin-1-yl)-3-(1H-pyrazol-4-yl)pyrido[3,4-b]pyrazine] | – | – | IC50 [1, 5]: 1000 to 30000 nM; IC50 [2, 5]: 1000 to 30000 nM
6 | COCC1CN(c2nc3ccncc3nc2-c2cn[nH]c2)CCN1Cc1ccc(F)cc1F (single isomer, unassigned) [Compound 89, 2-(4-(2,4-difluorobenzyl)-3-(methoxymethyl)piperazin-1-yl)-3-(1H-pyrazol-4-yl)pyrido[3,4-b]pyrazine] | 1000 to 30000 nM | 1000 to 30000 nM | –
7 | OCC1CN(c2nc3ccncc3nc2-c2cn[nH]c2)CCN1Cc1ccc(F)cc1F (single isomer, unassigned) [Compound 93, (4-(3-(1H-pyrazol-4-yl)pyrido[3,4-b]pyrazin-2-yl)-1-(2,4-difluorobenzyl)piperazin-2-yl)methanol] | ≥ 30000 nM | 1000 to 30000 nM | –
8 | COc1cncc(-c2nc3cnc(C(O)C(C)(C)O)cc3nc2N2CCN(Cc3ccc(F)cc3F)CC2)n1 (single isomer, unassigned) [Compound 94, 1-(2-(4-(2,4-difluorobenzyl)piperazin-1-yl)-3-(6-methoxypyrazin-2-yl)pyrido[3,4-b]pyrazin-7-yl)-2-methylpropane-1,2-diol] | 1000 to 30000 nM | 1000 to 30000 nM | –
9 | C[C@@H]1CN(Cc2ccc(F)cc2F)CCN1c1nc2ccncc2nc1-c1cnn(C)c1 (single isomer, unassigned) [Compound 224] | 1000 to 30000 nM | 1000 to 30000 nM | –
10 | C[C@H]1CN(Cc2ccc(F)cc2F)CCN1c1nc2ccncc2nc1-c1cnn(C)c1 (single isomer, unassigned) [Compound 225] | 1000 to 30000 nM | 100 to 1000 nM | –
11 | CC(=O)N1CCc2nc(N3CCN(Cc4ccc(F)cc4F)C[C@H]3C)c(-c3cnn(C)c3)nc2C1 (single isomer, unassigned) [Compound 231] | 1000 to 30000 nM | 1000 to 30000 nM | –
12 | CC(=O)N1CCc2nc(N3CCN(Cc4ccc(F)cc4F)C[C@@H]3C)c(-c3cnn(C)c3)nc2C1 (single isomer, unassigned) [Compound 232] | 1000 to 30000 nM | 1000 to 30000 nM | –
13 | COC[C@H]1CN(Cc2ccc(F)cc2F)CCN1c1nc2ccncc2nc1-c1cnn(C)c1 (single isomer, unassigned) [Compound 238] | 1000 to 30000 nM | 1000 to 30000 nM | –
14 | COC[C@@H]1CN(Cc2ccc(F)cc2F)CCN1c1nc2ccncc2nc1-c1cnn(C)c1 (single isomer, unassigned) [Compound 240] | 1000 to 30000 nM | 1000 to 30000 nM | –
15 | COC[C@@H]1CN(Cc2ccc(F)cc2F)CCN1c1nc2c(nc1-c1cnn(C)c1)CN(C(C)=O)CC2 (single isomer, unassigned) [Compound 244] | 1000 to 30000 nM | 1000 to 30000 nM | –
16 | COC[C@H]1CN(Cc2ccc(F)cc2F)CCN1c1nc2c(nc1-c1cnn(C)c1)CN(C(C)=O)CC2 (single isomer, unassigned) [Compound 249] | 1000 to 30000 nM | 1000 to 30000 nM | –
17 | Cn1cc(-c2nc3cnc([C@@H](O)C(C)(C)O)cc3nc2N2CCN(Cc3ccc(F)cc3F)CC2)cn1 (single isomer, unassigned) [Compound 261] | 1000 to 30000 nM | 100 to 1000 nM | –
18 | Cn1cc(-c2nc3cnc([C@H](O)C(C)(C)O)cc3nc2N2CCN(Cc3ccc(F)cc3F)CC2)cn1 (single isomer, unassigned) [Compound 262] | 1000 to 30000 nM | 100 to 1000 nM | –

Row | Molecule | IC50 [1, 3] | IC50 [2, 4] | also measured
19 | CC(=O)N1CCc2nc(N3CCC(Oc4ccc(F)cc4F)CC3)c(-c3cnn([C@@H](C)C#N)c3)nc2C1 (single isomer, unassigned) [Compound 271] | – | – | IC50 ([1]; procedure of Example 24): 1000 to 30000 nM; IC50 ([2]; procedure of Example 24): 100 to 1000 nM
20 | CC(=O)N1CCc2nc(N3CCC(Oc4ccc(F)cc4F)CC3)c(-c3cnn([C@H](C)C#N)c3)nc2C1 (single isomer, unassigned) [Compound 272] | – | – | IC50 ([1]; procedure of Example 24): 1000 to 30000 nM; IC50 ([2]; procedure of Example 24): 100 to 1000 nM
21 | CCn1cc(-c2nc3c(nc2N2CCC(Oc4ccc(F)cc4F)CC2)CCN(C[C@@H](O)CO)C3)cn1 (single isomer, unassigned) [Compound 290] | – | – | IC50 ([1]; procedure of Example 24): 1000 to 30000 nM; IC50 ([2]; procedure of Example 24): 100 to 1000 nM
22 | Cn1cc(-c2nc3cnccc3nc2N2CCN(Cc3ccc(F)cc3F)C[C@H]2CO)cn1 (single isomer, unassigned) [Compound 292] | – | – | IC50 ([1]; procedure of Example 24): 1000 to 30000 nM; IC50 ([2]; procedure of Example 24): ≥ 30000 nM
23 | CC(=O)N1CCc2nc(N3CC[C@H](Oc4ccc(F)cc4F)[C@@H](F)C3)c(-c3cnn(C)c3)nc2C1 (single isomer, unassigned) [Compound 331] | – | – | IC50 ([1]; procedure of Example 24): 1000 to 30000 nM; IC50 ([2]; procedure of Example 24): 1000 to 30000 nM
24 | Cn1cc(-c2nc3cnccc3nc2N2CC[C@H](Oc3ccc(F)cc3F)[C@H](F)C2)cn1 (single isomer, unassigned) [Compound 332] | – | – | IC50 ([1]; procedure of Example 24): 1000 to 30000 nM; IC50 ([2]; procedure of Example 24): 1000 to 30000 nM
25 | Cn1cc(-c2nc3c(nc2N2CC[C@H](Oc4ccc(F)cc4F)[C@H](F)C2)CCN(Cc2ccccc2)C3)cn1 (single isomer, unassigned) [Compound 333] | – | – | IC50 ([1]; procedure of Example 24): ≥ 30000 nM; IC50 ([2]; procedure of Example 24): 1000 to 30000 nM
26 | CC(=O)N1CCc2nc(N3CC[C@H](Oc4ccc(F)cc4F)[C@H](F)C3)c(-c3cnn(C)c3)nc2C1 (single isomer, unassigned) [Compound 334] | – | – | IC50 ([1]; procedure of Example 24): 1000 to 30000 nM; IC50 ([2]; procedure of Example 24): 1000 to 30000 nM
27 | Cn1cc(-c2nc3cnc([C@H](O)C(C)(C)O)cc3nc2N2CCC(Oc3ccc(F)cc3F)CC2)cn1 (single isomer, unassigned) [Compound 378, (Rel-S)-1-(2-(4-(2,4-difluorophenoxy)piperidin-1-yl)-3-(1-methyl-1H-pyrazol-4-yl)pyrido[3,4-b]pyrazin-7-yl)-2-methylpropane-1,2-diol] | 1000 to 30000 nM | 100 to 1000 nM | –
28 | Cn1cc(-c2nc3cnc([C@@H](O)C(C)(C)O)cc3nc2N2CCC(Oc3ccc(F)cc3F)CC2)cn1 (single isomer, unassigned) [Compound 379, (Rel-R)-1-(2-(4-(2,4-difluorophenoxy)piperidin-1-yl)-3-(1-methyl-1H-pyrazol-4-yl)pyrido[3,4-b]pyrazin-7-yl)-2-methylpropane-1,2-diol] | 1000 to 30000 nM | 100 to 1000 nM | –
29 | CC(C)(O)[C@H](O)c1cc2nc(N3CCN(Cc4ccc(F)cc4F)CC3)c(-c3cnn(C(F)F)c3)nc2cn1 (single isomer, unassigned) [Compound 396] | 1000 to 30000 nM | 100 to 1000 nM | –
30 | CC(C)(O)[C@@H](O)c1cc2nc(N3CCN(Cc4ccc(F)cc4F)CC3)c(-c3cnn(C(F)F)c3)nc2cn1 (single isomer, unassigned) [Compound 397] | 1000 to 30000 nM | < 100 nM | –
31 | CCn1cc(-c2nc3c(nc2N2CCC(Oc4cc(Cl)ccc4Cl)CC2)CCN(C[C@@H](O)CO)C3)cn1 (single isomer, unassigned) [Compound 408] | 1000 to 30000 nM | 100 to 1000 nM | –
32 | Cn1cc(-c2nc3cnc(C[C@@H](O)CO)cc3nc2N2CCC(Oc3ccc(F)cc3F)CC2)cn1 (single isomer, unassigned) [Compound 415] | 1000 to 30000 nM | 100 to 1000 nM | –
33 | Cn1cc(-c2nc3cnc(C[C@H](O)CO)cc3nc2N2CCC(Oc3ccc(F)cc3F)CC2)cn1 (single isomer, unassigned) [Compound 416] | 1000 to 30000 nM | 100 to 1000 nM | –
34 | CC(=O)N1Cc2nc(-c3cnn(C)c3)c(N3CCC(Oc4ccc(F)cc4F)CC3)nc2CC1C (single isomer, unassigned) [Compound 445] | 1000 to 30000 nM | 100 to 1000 nM | –
35 | COc1nc(-c2nc3c(nc2N2CCC(Oc4ccc(F)cc4F)CC2)CCN(C(C)=O)C3)ccc1F [Compound 83, 1-{2-[4-(2,4-difluorophenoxy)piperidin-1-yl]-3-(5-fluoro-6-methoxypyridin-2-yl)-5H,6H,7H,8H-pyrido[3,4-b]pyrazin-6-yl}ethan-1-one] | 1000 to 30000 nM | – | –
